Data on five molecules can be found in patent US7282210B2, “Process for the in vitro culture of different stages of tissular parasites” (priority 1993, dated 2007).

The test system of assay [1] is cultured amastigote forms of L. mexicana, L. amazonensis, L. braziliensis and L. chagasi. Kind of assay: direct leishmanicidal effect of nitric oxide on cultured amastigote forms. The class given is cell-based, Leishmania. The text has this:
(§1) Also, one of the mechanisms leading to lysis of the amastigote forms was elucidated.
The culture kinetics as well as the differentiation of the amastigote forms into promastigote forms were monitored after this treatment.

Assay [2] concerns cis-aconitase. Kind of assay: enzymatic activities of amastigote forms treated or not treated with NO. The class given is biochemical, Leishmania.
Description: as §1

For assay [3], the system named is resistant amastigote forms of L. mexicana. The assay is described as follows: growth inhibition by pentamidine, resistant amastigote forms. Type of assay: cell-based. An excerpt: (§2) In the stage of putting in contact, the parasitic forms are used at concentrations of 10^6 parasite/ml and the activity of the medicaments is studied at increasing concentrations.
(§3) Promastigote forms of L. mexicana resistant to pentamidine are obtained by medicamentous pressure in vitro and have a resistance index of about 30. They are then transformed according to the culture method already described into corresponding cultured amastigote forms which, after determination of the IC50, retain the resistance to pentamidine induced in the promastigote forms.
(§4) For the promastigotes the value is 27 and for the amastigotes it is 26.

In assay [4] the test system is resistant promastigote forms of L. mexicana. Kind of assay: growth inhibition by pentamidine, resistant promastigote forms. The class given is cell-based. The following applies: Leishmania mexicana, read-out: IC50 (concentration of pentamidine for which a growth inhibition of 50% is observed).
Description: as §2, §3, §4

Assay [5] relates to untreated promastigote forms of L. mexicana. Kind of assay: growth inhibition by pentamidine, untreated promastigote forms. The class given is cell-based. The following applies: Leishmania mexicana, read-out: IC50 (concentration of pentamidine for which a growth inhibition of 50% is observed).
Description: as §2, §3, §4

Where [6] appears, read: medium containing alpha-ketoglutaric acid (3 mM) and cis-aconitate (3 mM) added immediately to parasites treated with NO.

Turning to `O=S(=O)([O-])[O-].[Fe+2]` [FeSO4], in assay [1] (medium containing 100 μm of FeSO4 added immediately to parasites treated with NO), the “growth of NO-treated amastigote forms” value is “restore the growth of the amastigote forms”. For `[N]=O` [NO, nitric oxide], the “effect on cis-aconitase activity” value in assay [2] was “inhibition of cis-aconitase”. Moreover, the “leishmanicidal effect on cultured amastigote forms” value in assay [1] (gaseous NO (1%) carried by nitrogen (99%), pulsed for 15 minutes) is given as “leishmanicidal activity”.

With `O=C(O)CCC(=O)C(=O)O` [alpha-ketoglutaric acid], the “growth of NO-treated amastigote forms” value in assay [1] (setting [6]) is on record as “restore the growth of the amastigote forms”.

As for `O=C(O)/C=C(/CC(=O)O)C(=O)O` [cis-aconitate], the “growth of NO-treated amastigote forms” value in assay [1] (setting [6]) is “restore the growth of the amastigote forms”. For the molecule `N=C(N)c1ccc(OCCCCCOc2ccc(C(=N)N)cc2)cc1` [pentamidine], the IC50 is 32 ± 1 µM in assay [3] (Leishmania mexicana, read-out: IC50 (concentration of pentamidine for which a growth inhibition of 50% is observed)); 33 µM in assay [4]; 1200 ± 50 nM in assay [5]. In addition, the “resistance index (IC50 of the resistant strain/IC50 of the untreated strain)” value in assay [3] (amastigotes) was found to be 26.
